# ChEMBL document CHEMBL1124477, “Regional differences in the binding of selective muscarinic receptor antagonists in rat brain: comparison with minimum-energy conformations” (J Med Chem, 1989)
# Legend:
# [1] = target: Muscarinic acetylcholine receptor; parameters: species or system Rattus norvegicus
# [2] = target: Muscarinic acetylcholine receptor; type: tissue-based, Rattus norvegicus, Hippocampus
# [3] = target: Muscarinic acetylcholine receptor; type: tissue-based, Rattus norvegicus, Hippocampus; remark: listed apart in the source
# [4] = target: Muscarinic acetylcholine receptor; type: tissue-based, Rattus norvegicus, Hippocampus; remark: listed apart in the source
# [5] = target: Muscarinic acetylcholine receptor; parameters: species or system Rattus norvegicus; remark: listed apart in the source
# [6] = target: Muscarinic acetylcholine receptor
# [7] = target: Muscarinic acetylcholine receptor; remark: listed apart in the source
# [8] = target: Muscarinic acetylcholine receptor; remark: listed apart in the source
# [9] = target: Muscarinic acetylcholine receptor; remark: listed apart in the source
# [10] = target: Muscarinic acetylcholine receptor; remark: listed apart in the source
# [11] = target: Muscarinic acetylcholine receptor; remark: listed apart in the source
# [12] = target: Muscarinic acetylcholine receptor; remark: listed apart in the source
# [13] = target: Muscarinic acetylcholine receptor; remark: listed apart in the source
# [14] = target: Muscarinic acetylcholine receptor; remark: listed apart in the source
# [15] = target: Muscarinic acetylcholine receptor; remark: listed apart in the source
# [16] = target: Muscarinic acetylcholine receptor; remark: listed apart in the source
# [17] = target: Muscarinic acetylcholine receptor; remark: listed apart in the source
# [18] = target: Muscarinic acetylcholine receptor; remark: listed apart in the source
# [19] = target: Muscarinic acetylcholine receptor; remark: listed apart in the source
# [20] = target: Muscarinic acetylcholine receptor; remark: listed apart in the source
# [21] = target: Muscarinic acetylcholine receptor; remark: listed apart in the source
# [22] = target: Muscarinic acetylcholine receptor; remark: listed apart in the source
# [23] = target: Muscarinic acetylcholine receptor; remark: listed apart in the source
# [24] = target: Muscarinic acetylcholine receptor; remark: listed apart in the source
# [25] = target: Muscarinic acetylcholine receptor; remark: listed apart in the source
# [26] = target: Muscarinic acetylcholine receptor; remark: listed apart in the source
# [27] = target: Muscarinic acetylcholine receptor; remark: listed apart in the source
# [28] = target: Muscarinic acetylcholine receptor; remark: listed apart in the source
# [29] = target: Muscarinic acetylcholine receptor; remark: listed apart in the source
# [30] = target: Muscarinic acetylcholine receptor; remark: listed apart in the source
# [31] = target: Muscarinic acetylcholine receptor; remark: listed apart in the source
# [32] = target: Muscarinic acetylcholine receptor; remark: listed apart in the source
# [33] = target: Muscarinic acetylcholine receptor; remark: listed apart in the source
# [34] = target: Muscarinic acetylcholine receptor; remark: listed apart in the source
# [35] = target: Muscarinic acetylcholine receptor; remark: listed apart in the source
# [36] = target: Muscarinic acetylcholine receptor; remark: listed apart in the source
# [37] = target: Muscarinic acetylcholine receptor; remark: listed apart in the source
# [38] = target: Muscarinic acetylcholine receptor; remark: listed apart in the source
# [39] = target: Muscarinic acetylcholine receptor; remark: listed apart in the source
# [40] = target: Muscarinic acetylcholine receptor; remark: listed apart in the source
# [41] = target: Muscarinic acetylcholine receptor; remark: listed apart in the source
# [42] = target: Muscarinic acetylcholine receptor; remark: listed apart in the source
# [43] = target: Muscarinic acetylcholine receptor; remark: listed apart in the source
# [44] = target: Muscarinic acetylcholine receptor; remark: listed apart in the source
# [45] = target: Muscarinic acetylcholine receptor; remark: listed apart in the source
# [46] = target: Muscarinic acetylcholine receptor; remark: listed apart in the source
# [47] = target: Muscarinic acetylcholine receptor; remark: listed apart in the source
# [48] = target: Muscarinic acetylcholine receptor; remark: listed apart in the source
# [49] = target: Muscarinic acetylcholine receptor; remark: listed apart in the source
# [50] = target: Muscarinic acetylcholine receptor; remark: listed apart in the source
# [51] = target: Muscarinic acetylcholine receptor; remark: listed apart in the source
# [52] = target: Muscarinic acetylcholine receptor; remark: listed apart in the source
# [53] = target: Muscarinic acetylcholine receptor; remark: listed apart in the source
# [54] = target: Muscarinic acetylcholine receptor; remark: listed apart in the source
# [55] = target: Muscarinic acetylcholine receptor; remark: listed apart in the source
# [56] = target: Muscarinic acetylcholine receptor; remark: listed apart in the source
# [57] = target: Muscarinic acetylcholine receptor; remark: listed apart in the source
# [58] = target: Muscarinic acetylcholine receptor; remark: listed apart in the source
# [59] = target: Muscarinic acetylcholine receptor; remark: listed apart in the source
# [60] = target: Muscarinic acetylcholine receptor; remark: listed apart in the source
structure (smiles),measurement,setting,value
CCN(CC)CC1CCCCN1CC(=O)N1c2ccccc2C(=O)Nc2cccnc21 (stereo not given) [OTENZEPAD],IC50,[1],4000 nM
same,IC50,[2],6100 nM
same,IC50,[3],6300 nM
same,IC50,[4],3200 nM
same,IC50,[5],1600 nM
same,IC50,[6],1300 nM
same,IC50,[7],310 nM
same,IC50,[8],250 nM
same,IC50,[9],310 nM
same,IC50,[10],230 nM
same,IC50,[11],1900 nM
same,IC50,[12],2900 nM
same,IC50,[13],5800 nM
same,IC50,[14],260 nM
same,IC50,[15],7000 nM
same,IC50,[16],720 nM
same,IC50,[17],240 nM
same,IC50,[18],490 nM
same,IC50,[19],300 nM
same,IC50,[20],610 nM
same,IC50,[21],2300 nM
same,IC50,[22],6500 nM
same,IC50,[23],2000 nM
same,IC50,[24],7300 nM
same,IC50,[25],1200 nM
same,IC50,[26],9800 nM
same,IC50,[27],310 nM
same,IC50,[28],4300 nM
same,IC50,[29],260 nM
same,IC50,[30],4300 nM
same,IC50,[31],1300 nM
same,IC50,[32],570 nM
same,IC50,[33],840 nM
same,IC50,[34],320 nM
same,IC50,[35],2100 nM
same,IC50,[36],580 nM
same,IC50,[37],250 nM
same,IC50,[38],860 nM
same,IC50,[39],1400 nM
same,IC50,[40],420 nM
same,IC50,[41],960 nM
same,IC50,[42],1500 nM
same,IC50,[43],1000 nM
same,IC50,[44],2100 nM
same,IC50,[45],1800 nM
same,IC50,[46],580 nM
same,IC50,[47],430 nM
same,IC50,[48],1400 nM
same,IC50,[49],1700 nM
same,IC50,[50],790 nM
same,IC50,[51],690 nM
same,IC50,[52],14000 nM
same,IC50,[53],620 nM
same,IC50,[54],680 nM
same,IC50,[55],3200 nM
same,IC50,[56],490 nM
same,IC50,[57],1000 nM
same,IC50,[58],460 nM
same,IC50,[59],420 nM
same,IC50,[60],4900 nM
